Values joined by “and” are separate entries in the source; they are usually repeats but may differ in a detail not shown here. Identical values can stand only once. Like-named read-outs stand apart in the source and are kept apart here.
Test system: AsPC-1 cells
Assay: Cell proliferation assay, chemodrug + ATR inhibitor (Incucyte confluence, 72 h);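 also: underlying read-out for every value is AsPC-1 confluence after 72 h incubation at 37 °C and 5% CO2, divided by that well's starting confluence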
Settings: for Curve bottom / Curve slope / Curve top / EC50 / pEC50: AsPC-1; for Ratio: Response / Response vehicle (mean)
[1] = Experiment GEM (no ATRi), single replicates R1-R3
[2] = Experiment GEM+ATRi_dose1, single replicates R1-R3
[3] = Experiment GEM+ATRi_dose2, single replicates R1-R3
[4] = Experiment GEM+ATRi_dose3, single replicates R1-R3
[5] = Drug 0 nM + ATRi 3 nM (ATRi alone, GEM+ATRi_dose1 series), replicates R1-R3
[6] = Drug 0 nM + ATRi 10 nM (ATRi alone, GEM+ATRi_dose2 series), replicates R1-R3
[7] = Drug 0 nM + ATRi 30 nM (ATRi alone, GEM+ATRi_dose3 series), replicates R1-R3
[8] = Drug 1 nM + ATRi 3 nM (GEM+ATRi_dose1), replicates R1-R3
[9] = Drug 1 nM + ATRi 10 nM (GEM+ATRi_dose2), replicates R1-R3
[10] = Drug 1 nM + ATRi 30 nM (GEM+ATRi_dose3), replicates R1-R3
[11] = Drug 1 nM alone, ATRi 0 nM (experiment 'GEM'), replicates R1-R3
[12] = Drug 3 nM + ATRi 3 nM (GEM+ATRi_dose1), replicates R1-R3
[13] = Drug 3 nM + ATRi 10 nM (GEM+ATRi_dose2), replicates R1-R3
[14] = Drug 3 nM + ATRi 30 nM (GEM+ATRi_dose3), replicates R1-R3
[15] = Drug 3 nM alone, ATRi 0 nM (experiment 'GEM'), replicates R1-R3
[16] = Drug 10 nM + ATRi 3 nM (GEM+ATRi_dose1), replicates R1-R3
[17] = Drug 10 nM + ATRi 10 nM (GEM+ATRi_dose2), replicates R1-R3
[18] = Drug 10 nM + ATRi 30 nM (GEM+ATRi_dose3), replicates R1-R3
[19] = Drug 10 nM alone, ATRi 0 nM (experiment 'GEM'), replicates R1-R3
[20] = Drug 30 nM + ATRi 3 nM (GEM+ATRi_dose1), replicates R1-R3
[21] = Drug 30 nM + ATRi 10 nM (GEM+ATRi_dose2), replicates R1-R3
[22] = Drug 30 nM + ATRi 30 nM (GEM+ATRi_dose3), replicates R1-R3
[23] = Drug 30 nM alone, ATRi 0 nM (experiment 'GEM'), replicates R1-R3
[24] = Drug 100 nM + ATRi 3 nM (GEM+ATRi_dose1), replicates R1-R3
[25] = Drug 100 nM + ATRi 10 nM (GEM+ATRi_dose2), replicates R1-R3
[26] = Drug 100 nM + ATRi 30 nM (GEM+ATRi_dose3), replicates R1-R3
[27] = Drug 100 nM alone, ATRi 0 nM (experiment 'GEM'), replicates R1-R3
[28] = Drug 300 nM + ATRi 3 nM (GEM+ATRi_dose1), replicates R1-R3
[29] = Drug 300 nM + ATRi 10 nM (GEM+ATRi_dose2), replicates R1-R3
[30] = Drug 300 nM + ATRi 30 nM (GEM+ATRi_dose3), replicates R1-R3
[31] = Drug 300 nM alone, ATRi 0 nM (experiment 'GEM'), replicates R1-R3
[32] = Drug 1000 nM + ATRi 3 nM (GEM+ATRi_dose1), replicates R1-R3
[33] = Drug 1000 nM + ATRi 10 nM (GEM+ATRi_dose2), replicates R1-R3
[34] = Drug 1000 nM + ATRi 30 nM (GEM+ATRi_dose3), replicates R1-R3
[35] = Drug 1000 nM alone, ATRi 0 nM (experiment 'GEM'), replicates R1-R3
[36] = Drug 3000 nM + ATRi 3 nM (GEM+ATRi_dose1), replicates R1-R3
[37] = Drug 3000 nM + ATRi 10 nM (GEM+ATRi_dose2), replicates R1-R3
[38] = Drug 3000 nM + ATRi 30 nM (GEM+ATRi_dose3), replicates R1-R3
[39] = Drug 3000 nM alone, ATRi 0 nM (experiment 'GEM'), replicates R1-R3
[40] = chemodrug 30 nM alone (ATRi 0 nM)
[41] = chemodrug 100 nM alone (ATRi 0 nM)
[42] = chemodrug 300 nM alone (ATRi 0 nM)
[43] = chemodrug 1000 nM alone (ATRi 0 nM)
[44] = chemodrug 3000 nM alone (ATRi 0 nM)

Description: Cells were seeded at 5000 cells/well into 96-well flat bottom plates (Eppendorf) and allowed to attach overnight. […] Cells were incubated for 72 h at 37 °C and 5% CO2. Cell confluence readouts at 72 h were either normalized to their initial confluence using the Incucyte software (AsPC-1) or used without prior normalization (all others). […] Each experiment was performed in triplicates, the data was plotted as mean ± standard deviation (s.d.).

Compound: N.N.[Cl][Pt][Cl] [Cisplatin]
- Curve bottom [1]: 1.04 and 1.01 and 1.00
- Curve slope [1]: 1.30 and 2.18 and 1.82
- Curve top [1]: 0.20 and 0.35 and 0.27
- EC50 [1]: 513 nM and 218 nM and 302 nM
- pEC50 [1]: 6.29 and 6.66 and 6.52
- Curve bottom [2]: 1.05 and 1.02 and 1.03
- Curve slope [2]: 1.41 and 1.64 and 1.76
- Curve top [2]: 0.25 and 0.33 and 0.27
- EC50 [2]: 172 nM and 118 nM and 151 nM
- pEC50 [2]: 6.76 and 6.93 and 6.82
- Curve bottom [3]: 1.03 and 1.00 and 1.02
- Curve slope [3]: 1.60 and 1.79 and 1.21
- Curve top [3]: 0.28 and 0.31 and 0.26
- EC50 [3]: 36.4 nM and 34.9 nM and 37.1 nM
- pEC50 [3]: 7.44 and 7.46 and 7.43
- Curve bottom [4]: 0.90 and 0.95 and 0.88
- Curve slope [4]: 0.65 and 0.81 and 0.69
- Curve top [4]: 0.22 and 0.29 and 0.23
- EC50 [4]: 6.62 nM and 4.98 nM and 7.67 nM
- pEC50 [4]: 8.18 and 8.30 and 8.12
- Response [5]: 86.95 and 90.22 and 92.73
- Response [6]: 86.95 and 90.22
- Response [7]: 75.87 and 84.36
- Response [8]: 87.64 and 91.58 and 92.37
- Response [9]: 86.97 and 90.31
- Response [10]: 68.28 and 77.94
- Response [11]: 87.69 and 92.23
- Response [12]: 91.78 and 94.40 and 93.95
- Response [13]: 85.95 and 90.04
- Response [14]: 52.30 and 58.04
- Response [15]: 89.38 and 90.87
- Response [16]: 89.09 and 93.32 and 91.50
- Response [17]: 81.41 and 84.65
- Response [18]: 41.30 and 46.95
- Response [19]: 87.15 and 91.05
- Response [20]: 84.14 and 83.47 and 86.69
- Response [21]: 60.15 and 63.62
- Response [22]: 36.88 and 38.31
- Response [23]: 87.92 and 89.82
- Response [24]: 67.31 and 66.59 and 71.27
- Response [25]: 33.79 and 36.06
- Response [26]: 30.17 and 37.05
- Response [27]: 79.92 and 81.64
- Response [28]: 43.01 and 39.79 and 38.91
- Response [29]: 30.09 and 31.69
- Response [30]: 22.83 and 27.53
- Response [31]: 65.38 and 51.74
- Response [32]: 27.32 and 30.30 and 27.51
- Response [33]: 23.88 and 28.00
- Response [34]: 20.74 and 24.11
- Response [35]: 37.94 and 32.34
- Response [36]: 22.35 and 31.11 and 24.18
- Response [37]: 21.92 and 27.23 and 22.65
- Response [38]: 19.23 and 26.92
- Response [39]: 23.81 and 32.93
- Ratio [5]: 1.02 and 1.00 and 1.03
- Ratio [6]: 1.02 and 1.00
- Ratio [7]: 0.89 and 0.93
- Ratio [8]: 1.03 and 1.01 and 1.02
- Ratio [9]: 1.02 and 1.00
- Ratio [10]: 0.80 and 0.86
- Ratio [11]: 1.03 and 1.02
- Ratio [12]: 1.08 and 1.04
- Ratio [13]: 1.01 and 1.00
- Ratio [14]: 0.61 and 0.64
- Ratio [15]: 1.05 and 1.00
- Ratio [16]: 1.05 and 1.03 and 1.01
- Ratio [17]: 0.96 and 0.94
- Ratio [18]: 0.49 and 0.52
- Ratio [19]: 1.02 and 1.01
- Ratio [20]: 0.99 and 0.92 and 0.96
- Ratio [21]: 0.71 and 0.70
- Ratio [22]: 0.43 and 0.42
- Ratio [23]: 1.03 and 0.99
- Ratio [24]: 0.79 and 0.74
- Ratio [25]: 0.40
- Ratio [26]: 0.35 and 0.41
- Ratio [27]: 0.94 and 0.90
- Ratio [28]: 0.51 and 0.44 and 0.43
- Ratio [29]: 0.35
- Ratio [30]: 0.27 and 0.30
- Ratio [31]: 0.77 and 0.57
- Ratio [32]: 0.32 and 0.34 and 0.31
- Ratio [33]: 0.28 and 0.31
- Ratio [34]: 0.24 and 0.27
- Ratio [35]: 0.45 and 0.36
- Ratio [36]: 0.26 and 0.34 and 0.27
- Ratio [37]: 0.26 and 0.30 and 0.25
- Ratio [38]: 0.23 and 0.30
- Ratio [39]: 0.28 and 0.36
- Ratio (Response / Response vehicle (mean)) (chemodrug 1 nM + ATRi 10 nM): 1.00
- Response (chemodrug 1 nM + ATRi 10 nM): 89.91
- Ratio (Response / Response vehicle (mean)) (chemodrug 1 nM + ATRi 30 nM): 0.80
- Response (chemodrug 1 nM + ATRi 30 nM): 71.79
- Ratio (Response / Response vehicle (mean)) (chemodrug 1 nM alone (ATRi 0 nM)): 1.02
- Ratio (Response / Response vehicle (mean)) (chemodrug 3 nM + ATRi 10 nM): 0.99
- Response (chemodrug 3 nM + ATRi 10 nM): 89.48
- Ratio (Response / Response vehicle (mean)) (chemodrug 3 nM + ATRi 30 nM): 0.63
- Response (chemodrug 3 nM + ATRi 30 nM): 57.06
- Ratio (Response / Response vehicle (mean)) (chemodrug 3 nM alone (ATRi 0 nM)): 1.00
- Ratio (Response / Response vehicle (mean)) (chemodrug 10 nM + ATRi 10 nM): 0.89
- Response (chemodrug 10 nM + ATRi 10 nM): 80.53
- Ratio (Response / Response vehicle (mean)) (chemodrug 10 nM + ATRi 30 nM): 0.51
- Response (chemodrug 10 nM + ATRi 30 nM): 45.87
- Ratio (Response / Response vehicle (mean)) (chemodrug 10 nM alone (ATRi 0 nM)): 0.99
- Ratio (Response / Response vehicle (mean)) (chemodrug 30 nM + ATRi 10 nM): 0.69
- Response (chemodrug 30 nM + ATRi 10 nM): 62.02
- Ratio (Response / Response vehicle (mean)) (chemodrug 30 nM + ATRi 30 nM): 0.43
- Response (chemodrug 30 nM + ATRi 30 nM): 38.92
- Ratio (Response / Response vehicle (mean)) [40]: 1.03
- Response [40]: 92.93
- Ratio (Response / Response vehicle (mean)) (chemodrug 100 nM + ATRi 10 nM): 0.43
- Response (chemodrug 100 nM + ATRi 10 nM): 39.16
- Ratio (Response / Response vehicle (mean)) (chemodrug 100 nM + ATRi 30 nM): 0.35
- Response (chemodrug 100 nM + ATRi 30 nM): 31.50
- Ratio (Response / Response vehicle (mean)) [41]: 0.90
- Response [41]: 81.28
- Ratio (Response / Response vehicle (mean)) (chemodrug 300 nM + ATRi 10 nM): 0.31
- Response (chemodrug 300 nM + ATRi 10 nM): 28.30
- Ratio (Response / Response vehicle (mean)) (chemodrug 300 nM + ATRi 30 nM): 0.27
- Response (chemodrug 300 nM + ATRi 30 nM): 23.96
- Ratio (Response / Response vehicle (mean)) [42]: 0.65
- Response [42]: 58.52
- Ratio (Response / Response vehicle (mean)) (chemodrug 1000 nM + ATRi 10 nM): 0.29
- Response (chemodrug 1000 nM + ATRi 10 nM): 25.88
- Ratio (Response / Response vehicle (mean)) (chemodrug 1000 nM + ATRi 30 nM): 0.26
- Response (chemodrug 1000 nM + ATRi 30 nM): 23.54
- Ratio (Response / Response vehicle (mean)) [43]: 0.34
- Response [43]: 30.70
- Ratio (Response / Response vehicle (mean)) (chemodrug 3000 nM + ATRi 30 nM): 0.23
- Response (chemodrug 3000 nM + ATRi 30 nM): 20.88
- Ratio (Response / Response vehicle (mean)) [44]: 0.29
- Response [44]: 26.17
- sensitization of AsPC-1 cells to the chemodrug by Elimusertib (chemodrug + three sub-EC50 doses of Elimusertib): sensitized
- EC50 (read-out: EC50 mean, Experiment GEM (no ATRi), mean of R1-R3, repeated in each replicate line): 344 nM
- EC50 (read-out: EC50 mean, Experiment GEM+ATRi_dose1, mean of R1-R3, repeated in each replicate line): 147 nM
- EC50 (read-out: EC50 mean, Experiment GEM+ATRi_dose2, mean of R1-R3, repeated in each replicate line): 36.1 nM
- EC50 (read-out: EC50 mean, Experiment GEM+ATRi_dose3, mean of R1-R3, repeated in each replicate line): 6.42 nM

From paper PMC11876601 (Molecular Systems Biology, 2025)
